Measurements from US20230322815A1, “NOVEL COMPOUNDS AND THERAPEUTIC USES THEREOF” (University of Huddersfield, priority 2020, published 2023).

How the values were obtained:
[1] = test system: panel of human cancer (HT-29, DLD-1, HCT116 p53^+/+ and p53^−/−, PSN1, MiaPaCa2, BxPC3, A549, H460, GBM1) and non-cancer cell lines (ARPE-19, MCF10A, NP1); test: Chemosensitivity of a panel of human cancer and non-cancer cell lines (MTT, 96 h); type: cell-based; details: for IC50: HT-29, DLD-1, HCT116 (p53 wild type and null), BxPC3, A549 and H460 cell lines, 96 h, MTT
Description: FIG. 7. Chemosensitivity response of a panel of human cancer and non-cancer cell lines to 96 h continuous exposure to self-assembling test compounds. a, The potency of compounds tested against cancer (HT-29, DLD-1, HCT116 p53^+/+ and […], PSN1, MiaPaCa2, BxPC3, A549, H460 and GBM1) and non-cancer cells (ARPE-19, MCF10A and NP1). Each value represents the mean IC50±standard deviation from a minimum of three independent experiments. b,c, The selectivity index (SI) for [L2Cu3]^6+ (b) and [L2Zn3]^6+ (c) for the indicated cancer cell lines; SI is defined as the mean IC50 against the particular non-cancer cell line model divided by the mean IC50 against the particular cancer cell line. […] As the SI value is calculated using the mean IC50 values, experimental error is not included in these figures. d,e, IC50 values for the clinically approved platinates (cisplatin, oxaliplatin and carboplatin) and [L2Mn3]^6+ and the corresponding SI results.
All cell lines used were maintained at low passage in antibiotic-free media and were obtained from ATCC (LGC Standards, Middlesex, UK) unless otherwise stated (Methods). HT29, DLD-1, HCT116 p53^+/+ and HCT116 p53^−/− are all colorectal adenocarcinoma cell lines derived from different individuals and harbor different combinations of oncogenic lesions (except for the HCT116 isogenic cancer cell clones that are genetically identical except for p53 status). PSN-1, BxPC-3 and MiaPaCa2 are pancreatic carcinoma cell lines and A549 and H460 are lung carcinoma cell lines. HT29, DLD-1, PSN-1, BxPC-3, A549 and H460 cell lines were cultured in RPMI-1640 growth media (Sigma) containing 2 mM L-glutamine, 1 mM sodium pyruvate and 10% fetal bovine serum (FBS). HCT116 (p53^+/+ and p53^−/−) and MiaPaCa2 cell lines were cultured in Dulbecco's Modified Eagle's Medium (Sigma), 2 mM L-glutamine and 10% FBS. The ARPE-19 retinal epithelial non-cancer cell line (Dunn et al., 1996) was cultured in DMEM/F12 media (Gibco), 2 mM L-glutamine, 1 mM sodium pyruvate and 10% FBS. The MCF10A non-cancerous human breast epithelial cell line was cultured in Minimal Essential Media Eagle (Sigma), 2 mM L-glutamine, 1 mM sodium pyruvate, 10% FBS and 1×non-essential amino acids (NEAA). NP1 and GBM1 cells were cultured on plasticware coated with poly-L-ornithine (5 μg/ml) and laminin (2.4 μg/ml) (Polson et al., 2018; Da Silva et al., 2019). […]
[L2M3]^6+ and all the other self-assembling complexes were freshly formed by adding DMSO to individual components mixing together by pipetting. […] Media and MTT were removed and formazan crystals were dissolved in 150 μl of DMSO and the absorbance of the resulting solution determined at 540 nm. […]

[2] = molecular target: recombinant Src (p-Y527, p-Y416) (Homo sapiens, UniProt P12931); test: Western blot of purified recombinant kinase after exposure to complex; type: biochemical; details: 50 μM complex, 4 hours, in the presence of ATP
recombinant Src (p-Y527, p-Y416), sequence (P12931 whole entry): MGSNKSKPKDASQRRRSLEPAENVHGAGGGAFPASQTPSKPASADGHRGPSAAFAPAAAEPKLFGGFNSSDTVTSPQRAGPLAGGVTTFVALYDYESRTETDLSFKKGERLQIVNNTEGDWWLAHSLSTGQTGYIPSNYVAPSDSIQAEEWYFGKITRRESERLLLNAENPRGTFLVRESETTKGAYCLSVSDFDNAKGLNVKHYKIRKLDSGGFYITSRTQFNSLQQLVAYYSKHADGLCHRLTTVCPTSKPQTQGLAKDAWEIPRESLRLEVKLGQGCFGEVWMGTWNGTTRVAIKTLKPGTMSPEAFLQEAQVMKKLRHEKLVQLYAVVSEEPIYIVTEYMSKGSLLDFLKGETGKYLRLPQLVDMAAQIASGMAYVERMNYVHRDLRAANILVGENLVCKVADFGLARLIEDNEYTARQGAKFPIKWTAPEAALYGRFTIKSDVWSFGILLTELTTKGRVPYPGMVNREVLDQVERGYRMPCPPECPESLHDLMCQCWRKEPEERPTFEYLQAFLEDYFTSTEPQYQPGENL
Description: FIG. 10. Western blot analysis of purified recombinant Src and AMPK following exposure to [L2Zn3]^6+ and [L2Cu3]^6+. Purified enzymes were incubated with complexes (50 μM) for 4 hours in the presence of ATP prior to analysis.
Protein lysates and recombinant proteins were resolved on 15% SDS polyacrylamide gels. Proteins were electroblotted onto nitrocellulose membrane by wet transfer in 1×Tris Glycine buffer (Biorad) at 35 mA overnight at room temperature (Allison et al., 2014). After blocking of membranes, these were incubated with primary antibody overnight at 4° C. before addition of rabbit or mouse secondary antibody (HRP-conjugated) for 1 h at room temperature and development of blots by enhanced chemiluminescence. Primary antibodies were: anti-Src (total) (Cell Signalling Technology #2123 1:1000), anti-phosphorylated Src (Y527) (Cell Signalling Technology #21055 1:1000), anti-phosphorylated Src (Y416) (Cell Signalling Technology #69435 1:1000), anti-AMPKα (total) (Cell Signalling Technology #2532 1:1000), anti-phosphorylated AMPKα (T172) (Cell Signalling Technology […] 1:1000), anti-phospho-Tyr (pan) (Cell Signalling Technology #8954 1:2000), anti-p53 (Santa Cruz, DO-1 clone, 1:1000), anti-β-actin (Merck MAB1501, 1:40,000). Quantification of signals was performed by densitometry using Image J software.
For Src, effects of the complexes on two key regulatory phospho-amino acids were examined, Y527 and Y416 (FIG. 10). […] The decrease in p-Y527 is consistent with the selective phosphatase activity of [L2Zn3]^6+.

Structure (SMILES) | IC50 [1] | selectivity indices ([1]; many of the cancer cell lines) | detection of p-Y416 [2] | decrease in p-Y527 relative to total Src levels [2] [%] | increase in p-Y416 levels [2] [fold]
[Cu+2].[Cu+2].[Cu+2].c1ccc(-c2csc(NCCN(CCNc3nc(-c4ccccn4)cs3)CCNc3nc(-c4ccccn4)cs3)n2)nc1.c1ccc(-c2csc(NCCN(CCNc3nc(-c4ccccn4)cs3)CCNc3nc(-c4ccccn4)cs3)n2)nc1 [[L2Cu3]^6+] | mostly sub-μM | > 100 | could not be detected | – | –
[Zn+2].[Zn+2].[Zn+2].c1ccc(-c2csc(NCCN(CCNc3nc(-c4ccccn4)cs3)CCNc3nc(-c4ccccn4)cs3)n2)nc1.c1ccc(-c2csc(NCCN(CCNc3nc(-c4ccccn4)cs3)CCNc3nc(-c4ccccn4)cs3)n2)nc1 [[L2Zn3]^6+] | mostly sub-μM | – | – | ~30 | ~5
